# Measurements reported in patent US9169252B2 (BRISTOL-MYERS SQUIBB COMPANY, priority 2014, dated 2015).
# Where two headings read alike, the source gives them in different places.
# Assays:
# IRAK4 = IRAK4 (Homo sapiens (Human), UniProt Q9NWZ3); assay: IRAK4 Inhibition Assay; type: biochemical; details: ATP 500 μM, read-out: IRAK4 IC50
# Summary of the method: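 Mobility-shift readout: fluorescent substrate and phosphoproduct resolved electrophoretically on Caliper LabChip 3000 after EDTA quench (35 mM). Enzyme reaction of IRAK4, substrates and test compound ran 60 min at room temperature.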
# [1] = test system: TLR2 induced IL-6 in peripheral blood mononuclear cells (PBMCs); assay: PBMC TLR2 Induced IL-6 Assay; type: cell-based, human; details: IL-6 by ELISA; for EC50: read-out: Cell EC50; for IC50: read-out: Cell IC50
# Summary of the method: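 Lipoteichoic acid at 10 µg/ml served as TLR2 stimulus for 5 hours, following a 30-minute compound pretreatment at 37° C. Cells were Ficoll-isolated human PBMCs, 250000 cells/well, cultured in RPMI plus 10% heat-inactivated FCS.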
# [2] = human PBMCs, lipoteichoic acid stimulated
# [3] = Homo sapiens, PBMC, human PBMCs, lipoteichoic acid stimulated
# [4] = Homo sapiens, PBMC, PBMC TLR2 Induced IL-6 Assay, lipoteichoic acid stimulation
# [5] = PBMC TLR2 Induced IL-6 Assay, lipoteichoic acid stimulation
# IRAK4, sequence (Q9NWZ3 whole entry, species assumed): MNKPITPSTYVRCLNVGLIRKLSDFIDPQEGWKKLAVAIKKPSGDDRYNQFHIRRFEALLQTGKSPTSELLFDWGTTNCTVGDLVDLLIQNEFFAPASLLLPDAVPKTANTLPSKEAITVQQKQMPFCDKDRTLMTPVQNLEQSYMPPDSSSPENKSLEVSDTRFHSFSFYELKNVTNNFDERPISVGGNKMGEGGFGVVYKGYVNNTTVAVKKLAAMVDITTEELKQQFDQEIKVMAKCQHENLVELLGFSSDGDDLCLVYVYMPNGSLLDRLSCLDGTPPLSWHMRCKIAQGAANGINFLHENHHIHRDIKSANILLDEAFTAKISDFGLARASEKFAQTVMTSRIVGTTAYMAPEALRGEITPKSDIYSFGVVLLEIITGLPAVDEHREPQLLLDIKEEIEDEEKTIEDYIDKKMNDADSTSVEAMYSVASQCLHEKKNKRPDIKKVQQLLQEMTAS
Compound,IC50 (IRAK4; IRAK4 0.6 nM),IC50 (IRAK4; IRAK4 Inhibition Assay),"EC50 [1, 4]",further results
CCCCNC(=O)c1cnc(-n2ncc3cc(C#N)cnc32)cc1NC(C)C [Example 199],,6.3 nM,281 nM,
"CC(C)Nc1cc(-n2ccc3cc(C#N)cnc32)ncc1C(=O)NCCCOC(C)(C)C [Example 15, N-(3-(tert-butoxy)propyl)-6-(5-cyano-1H-pyrrolo[2,3-b]pyridin-1-yl)-4-(isopropylamino)nicotinamide]",,5.5 nM,171 nM,
"C[C@H](CF)Nc1cc(-n2ccc3cncnc32)ncc1C(=O)NC[C@@H](F)C(C)(C)O [Example 115, N—((R)-2-fluoro-3-hydroxy-3-methylbutyl)-4-(((R)-1-fluoropropan-2-yl)amino)-6-(7H-pyrrolo[2,3-d]pyrimidin-7-yl)nicotinamide]",,3.3 nM,82 nM,
"CC(C)(O)[C@H](F)CNC(=O)c1cnc(-n2ccc3cc(C#N)cnc32)cc1NC1CCOCC1F (single isomer, unassigned) [Example 107]",,1.8 nM,,"EC50 [1, 5]: 57 nM"
"CC(C)Nc1cc(-n2ccc3cc(C#N)cnc32)ncc1C(=O)N[C@H]1CC[C@](F)(c2nccn2C)CC1 [Example 181, 6-(5-cyano-1H-pyrrolo[2,3-b]pyridin-1-yl)-N-((1 s,4s)-4-fluoro-4-(1-methyl-1H-imidazol-2-yl)cyclohexyl)-4-(isopropylamino) nicotinamide]",,4.3 nM,152 nM,
CC(F)(F)Cn1cc(Nc2cc(-n3ncc4cc(Cl)cnc43)ncc2C(=O)NC[C@@H](F)C(C)(C)O)cn1 [Example 369],,1.9 nM,,"IC50 [1, 4]: 32 nM"
"CCNc1cc(-n2ccc3cc(C#N)cnc32)ncc1C(=O)NC[C@@H](F)C(C)(C)O [Example 4, (R)-6-(5-cyano-1H-pyrrolo[2,3-b]pyridin-1-yl)-4-(ethylamino)-N-(2-fluoro-3-hydroxy-3-methylbutyl) nicotinamide]",,1.4 nM,15 nM,"IC50 [1, 4]: 157 nM"
"CC(C)Nc1cc(-n2ccc3cc(C#N)cnc32)ncc1C(=O)N[C@H]1CC[C@](O)(c2cccnc2)CC1 [Example 177, 6-(5-cyano-1H-pyrrolo[2,3-b]pyridin-1-yl)-N-((1s,4s)-4-hydroxy-4-(pyridin-3-yl)cyclohexyl)-4-(isopropylamino)nicotinamide]",,3.6 nM,352 nM,
"CC(C)(O)[C@H](F)CNC(=O)c1cnc(-n2ccc3cc(C#N)cnc32)cc1N[C@@H]1CCC[C@H]1O [Example 30, 6-(5-cyano-1H-pyrrolo[2,3-b]pyridin-1-yl)-N—((R)-2-fluoro-3-hydroxy-3-methylbutyl)-4-(((1R,2R)-2-hydroxycyclopentyl)amino)nicotinamide]",,2.2 nM,101 nM,"IC50 [1, 4]: 184 nM"
CNC(=O)[C@H](F)CNC(=O)c1cnc(-n2ncc3cc(C#N)cnc32)cc1NC(C)C [Example 229],,9.6 nM,137 nM,"IC50 [1, 4]: 1420 nM"
CC(C)(O)[C@H](F)CNC(=O)c1cnc(-n2ncc3cc(Cl)cnc32)cc1Nc1cnn(CC(F)F)c1 [Example 351],,2.3 nM,,"IC50 [1, 4]: 27 nM"
"CC(C)(O)[C@H](F)CNC(=O)c1cnc(-n2ccc3cc(C#N)cnc32)cc1Nc1cccc(S(N)(=O)=O)c1 [Example 50, (R)-6-(5-cyano-1H-pyrrolo[2,3-b]pyridin-1-yl)-N-(2-fluoro-3-hydroxy-3-methylbutyl)-4-((3-sulfamoylphenyl)amino)nicotinamide]",,1.9 nM,58 nM,
"CC(C)(O)[C@H](F)CNC(=O)c1cnc(-n2ncc3cc(C#N)cnc32)cc1NCC(F)(F)C(C)(C)O [Example 169, (R)-6-(5-Cyano-1H-pyrazolo[3,4-b]pyridin-1-yl)-4-((2,2-difluoro-3-hydroxy-3-methylbutyl)amino)-N-(2-fluoro-3-hydroxy-3-methylbutyl)nicotinamide]",,3.3 nM,204 nM,
"CC(C)Nc1cc(-n2ncc3cc(C#N)cnc32)ncc1C(=O)N[C@H]1CC[C@H](S(C)(=O)=O)CC1 [Example 161, 6-(5-cyano-1H-pyrazolo[3,4-b]pyridin-1-yl)-4-(isopropylamino)-N-((trans)-4-(methylsulfonyl)cyclohexyl)nicotinamide]",,6.8 nM,253 nM,
CC(C)CC(=O)NCc1cnc2c(cnn2-c2cc(NC(C)C)c(C(=O)NC[C@@H](F)C(C)(C)O)cn2)c1 [Example 280],,16.9 nM,,"IC50 [1, 4]: 692 nM"
COC1CCC(O)(CCNC(=O)c2cnc(-n3ncc4cc(C#N)cnc43)cc2NC(C)C)CC1 (stereo not drawn) [Example 291],,3.5 nM,,"IC50 [1, 4]: 349 nM"
"CC(C)(O)CCNC(=O)c1cnc(-n2ncc3cc(C#N)cnc32)cc1NC1CCOCC1 [Example 151, 6-(5-cyano-1H-pyrazolo[3,4-b]pyridin-1-yl)-N-(3-hydroxy-3-methylbutyl)-4-((tetrahydro-2H-pyran-4-yl)amino)nicotinamide]",,14.8 nM,443 nM,
CC(C)Nc1cc(-n2ncc3cc(C#N)cnc32)ncc1C(=O)NC[C@@H](F)C(C)(C)O [Example 335],,3.3 nM,,"EC50 [1, 5]: 77 nM"
"CC(CCO)Nc1cc(-n2ccc3cc(C#N)cnc32)ncc1C(=O)NC[C@@H](F)C(C)(C)O (single isomer, unassigned) [Example 21]",,2.3 nM,51 nM,
CC(Nc1cc(-n2ncc3cc(C#N)c(N)nc32)ncc1C(=O)NC[C@@H](F)C(C)(C)O)C(F)(F)F (stereo partly drawn) [Example 301],,2.4 nM,,"IC50 [1, 4]: 63 nM"

# More lines, main results first:
IC50 (IRAK4; IRAK4 0.6 nM),IC50 (IRAK4; IRAK4 Inhibition Assay),Compound,"EC50 [1, 4]",further results
2.9 nM,,"CC(O)CCNc1cc(-n2ccc3cc(C#N)cnc32)ncc1C(=O)NC[C@@H](F)C(C)(C)O (single isomer, unassigned) [Example 462]",,"EC50 [1, 2]: 66 nM; IC50 [1, 2]: 398 nM"
20.1 nM,,COc1cnc(NC(=O)c2cnc(-n3ncc4cc(C#N)cnc43)cc2NC(C)C)cn1 [Example 564],,"EC50 [1, 3]: 659 nM"
5.8 nM,,CC(=O)N1CC(Nc2cc(-n3ccc4cc(C#N)cnc43)ncc2C(=O)NC[C@@H](F)C(C)(C)O)C1 [Example 468],,"EC50 [1, 3]: 128 nM; IC50 [1, 3]: 1010 nM"
6.3 nM,,CC(C)(O)[C@H](F)CNC(=O)c1cnc(-n2ncc3cc(C#N)cnc32)cc1NC1CN(c2ncc(F)cn2)C1 [Example 539],,"EC50 [1, 3]: 256 nM"
,2.4 nM,CC(C)(O)[C@H](F)CNC(=O)c1cnc(-n2ccc3cc(C#N)cnc32)cc1Nc1cnn(C2CCOCC2)c1 [Example 373],,"IC50 [1, 4]: 71 nM"
3.6 nM,,CC(C)(O)[C@H](F)CNC(=O)c1cnc(-n2ncc3cc(C#N)cnc32)cc1Nc1cc(-c2ccccc2)n[nH]1 [Example 412],,"IC50 [1, 3]: 53 nM"
8.9 nM,,CCNc1cc(-n2ncc3cc(C#N)cnc32)ncc1C(=O)NC[C@@H](F)C(C)(C)O [Example 568],,"EC50 [1, 3]: 661 nM; IC50 [1, 3]: 1370 nM"
7.7 nM,,"CC(C)(O)[C@H](F)CNC(=O)c1cnc(-n2ncc3cc(C#N)cnc32)cc1NC1CCC(F)(F)C1 (single isomer, unassigned) [Example 614]",,"EC50 [1, 3]: 481 nM; IC50 [1, 2]: 491 nM"
10.8 nM,,CC1COCCN1CCNc1cc(-n2ccc3cc(C#N)cnc32)ncc1C(=O)NC[C@@H](F)C(C)(C)O (mixture of isomers) [Example 483],,"EC50 [1, 3]: 199 nM"
10.7 nM,,CCNc1cc(-n2ncc3cnc(N)nc32)ncc1C(=O)NC[C@@H](F)C(C)(C)O [Example 580],,"IC50 [1, 3]: 487 nM"
8.4 nM,,CC(C)(O)[C@H](F)CNC(=O)c1cnc(-n2ncc3cc(C#N)cnc32)cc1NCC1(F)CCC1 [Example 581],,"IC50 [1, 3]: 227 nM"
